Three compounds from US20150093398A1, “Methods and Compositions for Treating or Preventing Cancer” (MERCK SHARP & DOHME CORP., priority 2005, published 2015) can be followed below.

For experiment [1], the system named is Hs700T malignant pancreatic cells. The experiment in a line: Hs700T pancreatic xenograft tumor growth in mice (04 IGFR-16, 19D12 and Gemzar combination).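 Also: subcutaneous flank xenografts in athymic nude mice, treated once tumors averaged 100 mm^3, antibody given intraperitoneally twice weekly, tumor size measured by calipers.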
Procedure: (§1) Athymic nude mice were inoculated with tumor cells in the right flank, subcutaneously, along with Matrigel (1:1 cells:gel). In these experiments, 5×10^6 cells/mouse in a 1:1 mix with regular matrigel were inoculated subcutaneously. Tumor size was measured with calipers and the data was entered into the labcat program. Mice were grouped with average size of 100 mm^3. Tumor size and body weight were measured twice weekly.
(§2) In these experiments, mice were dosed twice per week, intraperitoneally (i.p.) with antibody 19D12 and chemotherapeutic agents at the indicated frequency. Tumor size and mouse body weight was measured twice weekly after treatment.
For experiment [2], the system named is SK-N-MC neuroblastoma cells. The experiment in a line: SK-N-MC neuroblastoma xenograft tumor growth in mice (04 IGFR-13, 19D12 vs. Cisplatin). The class given is in vivo, Athymic nude mice. Conditions: Cisplatin 2 mpk.
For experiment [3], the system named is SJCRH30 rhabdomyosarcoma cells. The experiment in a line: SJCRH30 rhabdomyosarcoma xenograft tumor growth in mice (05 IGFR-01, 19D12 and Cytoxan). Conditions: 100 mpk Cytoxan. The class given is in vivo, Athymic nude mice.
Procedure: as §1, §2
In experiment [4] the test system is SK-N-AS neuroblatoma cells. The experiment can be described thus: SK-N-AS neuroblastoma xenograft tumor growth in mice (03 IGFR-09, 19D12 vs. Cytoxan). Conditions: 100 mpk Cytoxan. The class given is in vivo, Athymic nude mice.
Procedure: as §1, §2
The test system of experiment [5] is SJSA-1 osteosarcoma cells. The experiment in a line: SJSA-1 osteosarcoma xenograft model (05-IGFR-21), dosing from 15 days after inoculation. The class given is in vivo, female nude mouse (strain NU/NU). How it is done: Xenograft tumor size was measured twice per week with a caliper and captured electronically by the LabCat program. […] For the experiments set forth in Table 9, dosing was initiated 15 days after inoculation. […] Xenograft tumor size was measured twice per week with a caliper and captured electronically by the LabCat program.

Experiment [6] relates to SJSA-1 osteosarcoma cells. The experiment in a line: SJSA-1 osteosarcoma xenograft model (05-IGFR-12), dosing from day 18 post inoculation. The class given is in vivo, female nude mouse (strain NU/NU). Conditions: 100 mpk Cytoxan. As to the method: About 7 million SJSA-1 osteosarcoma cells were inoculated subcutaneously to the flank of each female nude mouse (strain NU/NU from Charles River, age ˜6 wks-old, average weight ˜20 gram). For the experiment set forth in Table 8, dosing was initiated on day 18 post inoculation, when the xenograft tumor reached an average size of about 100 mm^3. Anti-IGF1R antibody (19D12 Light chain F/Heavy chain A (as set forth above)) was given ip twice a week at the dose of either 0.02 mg, 0.1 and 0.5 mg per mouse, while cytotoxic Cytoxan (cyclophosphamide) was given ip twice per week at the dose of 100 mpk for a total of 3 injection during the course of the study. Xenograft tumor size was measured twice per week with a caliper and captured electronically by the LabCat program.

Turning to `Cl.Nc1ccn(C2OC(CO)C(O)C2(F)F)c(=O)n1` (stereo not drawn) [Gemzar, gemcitabine, reference compound], the “Tumor Average Size” value in experiment [1] (100 mpk Gemzar, Day 0) is 77 mm^3; in experiment [1] (100 mpk Gemzar, Day 4), 86 mm^3; in experiment [1] (100 mpk Gemzar, Day 7), 98 mm^3; in experiment [1] (100 mpk Gemzar, Day 11), 105 mm^3; in experiment [1] (100 mpk Gemzar, Day 14), 119 mm^3; in experiment [1] (100 mpk Gemzar, Day 18), 148 mm^3. The “Tumor Average Size” value in experiment [1] (100 mpk Gemzar, Day 21) is 166 mm^3; in experiment [1] (100 mpk Gemzar, Day 26), 249 mm^3; in experiment [1] (100 mpk Gemzar, Day 29) it was 284 mm^3; in experiment [1] (100 mpk Gemzar, Day 33), 324 mm^3; in experiment [1] (100 mpk Gemzar, Day 36), 368 mm^3.
As for `N.N.[Cl][Pt][Cl]` [Cisplatin, cisplatin, reference compound], the “Tumor Average Size” value in experiment [2] (Day 0) is recorded as 99 mm^3; in experiment [2] (Day 2) it was 131 mm^3; in experiment [2] (Day 6) it was 174 mm^3; in experiment [2] (Day 9), 212 mm^3; in experiment [2] (Day 13) it was 264 mm^3; in experiment [2] (Day 16), 288 mm^3. The “Tumor Average Size” value in experiment [2] (Day 20) is 299 mm^3; in experiment [2] (Day 23), 352 mm^3; in experiment [2] (Day 24), 352 mm^3; in experiment [1] (5 mpk Cisplatin, Day 0), 79 mm^3; in experiment [1] (5 mpk Cisplatin, Day 4) it was 87 mm^3; in experiment [1] (5 mpk Cisplatin, Day 7) it was 96 mm^3. Besides, the “Tumor Average Size” value amounted to 99 mm^3 in experiment [1] (5 mpk Cisplatin, Day 11); 100 mm^3 in experiment [1] (5 mpk Cisplatin, Day 14); 107 mm^3 in experiment [1] (5 mpk Cisplatin, Day 18); 113 mm^3 in experiment [1] (5 mpk Cisplatin, Day 21); 155 mm^3 in experiment [1] (5 mpk Cisplatin, Day 26); 175 mm^3 in experiment [1] (5 mpk Cisplatin, Day 29). Besides, the “Tumor Average Size” value was determined as 185 mm^3 in experiment [1] (5 mpk Cisplatin, Day 33) and 173 mm^3 in experiment [1] (5 mpk Cisplatin, Day 36).
Consider `O=P1(N(CCCl)CCCl)NCCCO1` (stereo not drawn) [Cytoxan, cyclophosphamide, reference compound], for which the “Tumor Average Size” value was found to be 75 mm^3 in experiment [3] (Day 0); 125 mm^3 in experiment [3] (Day 4); 232 mm^3 in experiment [3] (Day 7); 347 mm^3 in experiment [3] (Day 11); 591 mm^3 in experiment [3] (Day 14); 733 mm^3 in experiment [3] (Day 18). Besides, the “Tumor Average Size” value in experiment [4] (Day 4) turned out to be 257 mm^3; in experiment [4] (Day 7), 227 mm^3; in experiment [4] (Day 11), 111 mm^3; in experiment [4] (Day -1) it was 122 mm^3. Further, the “Mean Tumor size” value in experiment [5] (50 mpk Cytoxan, Day 0) is reported as 145 mm3; in experiment [5] (50 mpk Cytoxan, Day 4), 198 mm3; in experiment [5] (50 mpk Cytoxan, Day 7), 287 mm3; in experiment [5] (50 mpk Cytoxan, Day 11), 614 mm3; in experiment [5] (50 mpk Cytoxan, Day 14), 908 mm3; in experiment [5] (100 mpk Cytoxan, Day 0), 149 mm3. Also, the “Mean Tumor size” value in experiment [5] (100 mpk Cytoxan, Day 4) was 132 mm3; in experiment [5] (100 mpk Cytoxan, Day 7), 193 mm3; in experiment [5] (100 mpk Cytoxan, Day 11), 218 mm3; in experiment [5] (100 mpk Cytoxan, Day 14), 285 mm3; in experiment [6] (Day 0), 96 mm3; in experiment [6] (Day 3), 111 mm3. Further, the “Mean Tumor size” value in experiment [6] (Day 7) was 102 mm3; in experiment [6] (Day 10), 59 mm3; in experiment [6] (Day 14), 140 mm3; in experiment [6] (Day 17), 172 mm3; in experiment [6] (Day 21), 302 mm3; in experiment [6] (Day 24), 586 mm3. Besides, the “Mean Tumor size” value in experiment [6] (Day 28) is recorded as 972 mm3.
